Measurements from the NIST ThermoML archive (doi:10.1016/j.fluid.2015.06.015).
± gives the expanded uncertainty stated by the source.

Assays:
[1] = Molar enthalpy of transition or fusion; settings: Crystal 1; DSC
[2] = DTA; for Normal melting temperature: Crystal 1

Molar enthalpy of transition or fusion [1] [kcal/mol] | Normal melting temperature [2] [°C] | Triple point temperature ([2]; Crystal 2) [K] | Triple point temperature ([2]; Crystal 3) [K] | Compound
8.27 ± 0.502 | 45.33 ± 1 | 317.91 ± 0.46 |  | CCCCCCCCCCCC(=O)O [dodecanoic acid]
7.09 ± 0.43 | 6.96 ± 0.56 | 275.94 ± 0.68 |  | CCCCCCCCCCO [decan-1-ol]
10.5 ± 0.222 | 55.78 ± 0.5 | 327.95 ± 0.7 |  | CCCCCCCCCCCCCC(=O)O [tetradecanoic acid]
6.51 ± 0.217 | 32.33 ± 0.41 |  |  | CCCCCCCCCC(=O)O [decanoic acid]

Continued, compound first:

Compound | Molar enthalpy of transition or fusion [1] [kcal/mol] | Normal melting temperature [2] [°C] | Triple point temperature ([2]; Crystal 2) [K] | Triple point temperature ([2]; Crystal 3) [K]
CCCCCCCCCCCCO [dodecan-1-ol] | 9.19 ± 0.335 | 24.38 ± 0.39 | 296.95 ± 0.39 | 291.04 ± 0.7
CCCCCCCC/C=C\CCCCCCCC(=O)OCC(COC(=O)CCCCCCC/C=C\CCCCCCCC)OC(=O)CCCCCCC/C=C\CCCCCCCC [1,2,3-tri(cis-9-octadecenoyl)glycerol] | 27.4 ± 0.598 | 5.42 ± 0.39 | 258.99 ± 0.66 | 
CCCCCCCCCCCCCCO [1-tetradecanol] | 10.9 ± 0.454 | 38.0 ± 0.53 | 310.06 ± 0.78 | 
